Broadly, the EC50 is the concentration giving half of the maximal effect. As a reminder, the half-life is the time in which the quantity being followed falls by half. As usually defined, the AUC(0-t) is the area under the concentration-time curve up to a stated or last time point. By Tmax is commonly meant the time from dosing to the highest level. The Cmax is the highest concentration seen after dosing. One may read the solubility as the concentration that dissolves in the medium under given conditions. As a reminder, the clearance is the volume of plasma or blood freed of the substance per unit of time.

≈ marks a conversion by molar mass, not a printed value.

A short description of data set [1]: Inhibition of HCV genotype-1a NS5A. Also on record: species or system Hepatitis C virus subtype 1a.
Data set [2] can be described thus: Inhibition of HCV genotype-1b NS5A. On the set-up: species or system Hepatitis C virus subtype 1b.
Data set [3] can be described thus: Inhibition of NS5A in HCV genotype-1a infected in human HuH7 cells by luciferase reporter gene assay. Type of data set: cell-based, Hepatitis C virus subtype 1a. The settings on record: Hepatitis C virus, Huh-7. A general note: Reporter assays use an easily measured gene product as a stand-in for the process of interest.
Data set [4] in a line: Inhibition of NS5A in HCV genotype-1b infected in human HuH7 cells by luciferase reporter gene assay. The settings on record: Hepatitis C virus, Huh-7. Type of data set: cell-based, Hepatitis C virus subtype 1b.
Data set [5] can be described thus: Volume of distribution at steady state in Sprague-Dawley rat at 1 mg/kg, iv. The class given is ADME, organism-based. To be noted: in vivo, read-out: Vdss. Also on record: dose 1 mg/kg, route intravenous.
The nature of data set [6]: Volume of distribution at steady state in cynomolgus monkey at 1 mg/kg, iv. Type of data set: ADME, organism-based, Macaca fascicularis. Also on record: dose 1 mg/kg, route intravenous. To be noted: in vivo, read-out: Vdss.
Data set [7] can be described thus: Half life in Sprague-Dawley rat at 1 mg/kg, iv. The class given is ADME, organism-based. On the set-up: dose 1 mg/kg, route intravenous. To be noted: in vivo.
Data set [8] can be described thus: Half life in cynomolgus monkey at 1 mg/kg, iv. The class given is ADME, organism-based, Macaca fascicularis. On the set-up: dose 1 mg/kg, route intravenous. To be noted: in vivo.
Data set [9] in a line: AUClast in Sprague-Dawley rat at 1 mg/kg, iv. The class given is ADME, organism-based. On the set-up: time 0 - last, dose 1 mg/kg, route intravenous. The settings on record: plasma.
Data set [10] is described as follows: AUClast in cynomolgus monkey at 1 mg/kg, iv. Also on record: dose 1 mg/kg, route intravenous, time 0 - last. To be noted: plasma. Type of data set: ADME, organism-based, Macaca fascicularis.
The nature of data set [11]: Tmax in Sprague-Dawley rat at 5 mg/kg, po. The class given is ADME, organism-based. To be noted: in vivo. On the set-up: dose 5 mg/kg, route oral.
Data set [12] can be described thus: Tmax in Sprague-Dawley rat at 100 mg/kg, po. To be noted: in vivo. On the set-up: dose 100 mg/kg, route oral. The class given is ADME, organism-based.
Data set [13] can be described thus: Tmax in cynomolgus monkey at 5 mg/kg, po. Type of data set: ADME, organism-based, Macaca fascicularis. On the set-up: dose 5 mg/kg, route oral. To be noted: in vivo.
A short description of data set [14]: Cmax in Sprague-Dawley rat at 5 mg/kg, po. Type of data set: ADME, organism-based. On the set-up: dose 5 mg/kg, route oral. The settings on record: in vivo.
The nature of data set [15]: Cmax in Sprague-Dawley rat at 100 mg/kg, po. The class given is ADME, organism-based. On the set-up: dose 100 mg/kg, route oral. To be noted: in vivo.
Data set [16] in a line: Cmax in cynomolgus monkey at 5 mg/kg, po. Type of data set: ADME, organism-based, Macaca fascicularis. Also on record: dose 5 mg/kg, route oral. The settings on record: in vivo.
A short description of data set [17]: AUClast in Sprague-Dawley rat at 5 mg/kg, po. The settings on record: plasma. Also on record: time 0 - last, dose 5 mg/kg, route oral. Type of data set: ADME, organism-based.
The nature of data set [18]: AUClast in Sprague-Dawley rat at 100 mg/kg, po. The class given is ADME, organism-based. On the set-up: time 0 - last, dose 100 mg/kg, route oral. The settings on record: plasma.
The nature of data set [19]: AUClast in cynomolgus monkey at 5 mg/kg, po. Type of data set: ADME, organism-based, Macaca fascicularis. Also on record: time 0 - last, dose 5 mg/kg, route oral. To be noted: plasma.
Data set [20] can be described thus: Oral bioavailability in Sprague-Dawley rat at 5 mg/kg. The class given is ADME, organism-based. To be noted: in vivo.
Data set [21] can be described thus: Oral bioavailability in cynomolgus monkey at 5 mg/kg. Type of data set: ADME, organism-based, Macaca fascicularis. The settings on record: in vivo.
Data set [22] in a line: Drug uptake in Sprague-Dawley rat liver at 5 mg/kg, po after 4 hrs. Type of data set: ADME, organism-based. To be noted: read-out: Drug uptake. On the set-up: dose 5 mg/kg, route oral.
A short description of data set [23]: Plasma concentration in Sprague-Dawley rat […] at 5 mg/kg, po after 4 hrs. Also on record: dose 5 mg/kg, route oral. The class given is ADME, organism-based.
The nature of data set [24]: Plasma concentration in Sprague-Dawley rat […] at 100 mg/kg, po after 4 hrs. The class given is ADME, organism-based. On the set-up: dose 100 mg/kg, route oral.
Data set [25] is described as follows: Solubility of the compound at pH 7.4 by UV detection method. To be noted: buffer. The class given is physicochemical.
A short description of data set [26]: Clearance in Sprague-Dawley rat at 1 mg/kg, iv. Type of data set: ADME, organism-based. Also on record: dose 1 mg/kg, route intravenous. The settings on record: in vivo.
A short description of data set [27]: Clearance in cynomolgus monkey at 1 mg/kg, iv. The class given is ADME, organism-based, Macaca fascicularis. On the set-up: dose 1 mg/kg, route intravenous. The settings on record: in vivo.

Turning to `COC(=O)N[C@@H](C(=O)N1CCC[C@H]1c1ncc(-c2ccc(-c3ccc(-c4cnc([C@@H]5CCCN5C(=O)[C@H](NC(=O)OC)c5ccccc5)[nH]4)cc3)cc2)[nH]1)c1ccccc1`, the EC50 came to 0.05 nM in data set [1], 0.009 nM in data set [2], 0.079 nM in data set [3] and 0.009 nM in [4].
For the molecule `COC(=O)N[C@H](C(=O)N1CCC[C@H]1c1ncc(-c2ccc(C34CCC(c5cnc([C@@H]6CCCN6C(=O)[C@@H](NC(=O)OC)C(C)C)[nH]5)(CC3)CC4)cc2)[nH]1)C(C)C`, the Vd in data set [5] stood at 1.31 L/kg; in data set [6], 0.64 L/kg. The half-life is 1.2 h in data set [7] and 1.24 h in [8]. The area under the curve AUC(0-t) is 1050 ng·h/mL in data set [9]; 2570 ng·h/mL in [10]; 6580 ng·h/mL in [17]; 242000 ng·h/mL in [18]; 7930 ng·h/mL in [19]. In addition, the time of peak concentration (Tmax) came to 1.17 h in data set [11], 2 h in [12] and 4 h in [13]. The Cmax amounted to 980 ng/mL in [14], 19100 ng/mL in data set [15] and 1400 ng/mL in data set [16]. Further, the bioavailability in [20] came out at 124%; in data set [21] it was 61.1%. The concentration at 4 h turned out to be 2590 ng/mL in data set [22], 653 ng/mL in data set [23] and 15800 ng/mL in data set [24]. The values for the half-maximal effective concentration (EC50) in data set [3] and in data set [4] were 1.4 nM and 0.06 nM, respectively. Also, the solubility in data set [25] was 45 µg/mL (≈ 58.4 µM). Besides, the clearance is 15.7 mL/min/kg in [26] and 6.5 mL/min/kg in data set [27].
